“And” between values parts separate entries of the source, which are not always exact repeats. Identical values can stand only once.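 Exposure lasted 48 hours, with cells grown in 96-well plates and compounds tested at five concentrations. The concentration for 50% growth inhibition is given as GI50. TGI: concentration producing complete growth inhibition.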 Bounds are passed on as bounds.

What all share (assay): NCI tumour cell line growth inhibition, 48 h
For experiment [1], the system named is LXFL 529 NSCLC.
Experiment [2] has as its system DMS 114 small cell lung.
In experiment [3] the test system is LOX IMVI melanoma.
The subject of experiment [4] is HCT-116 colon.
The test system of experiment [5] is TK-10 renal.
The subject of experiment [6] is SN12C renal.
In experiment [7] the test system is NCI-H460 lung.
Experiment [8] deals with ACHN renal.
For experiment [9], the system named is 786-0 renal.
In experiment [10] the test system is SW-620 colon.

Take `CCCCNC1CCCCC[C@H]1O` (stereo not given in full): the TGI in experiment [1], in [2], in experiment [3], in experiment [4], in experiment [5] and in experiment [6] was greater than 100 µM each time. Moreover, the TGI in [7], in experiment [8], in [9] and in [10] was greater than 100 µM each time.

Consider `COC(=O)[C@@]12C(=O)C=CC(=O)C1C1C(=CC2C)OC2OC3(CCCCC3)OC21` (stereo not given in full), for which the TGI in experiment [1] came to 26.3 µM; in experiment [2], 31.4 µM; in [3], 42.8 µM; in [4] it was 29.8 µM; in experiment [5] it was 31.6 µM; in experiment [6], 33.2 µM. Besides, the TGI in [7] amounted to 35.7 µM; in experiment [8], 30.6 µM; in experiment [9], 32.4 µM; in experiment [10], 37.4 µM.

As to `CC(=O)C1Cn2c(nc3ccccc32)C[Se]1` (stereo not given), the TGI was found to be 10.4 µM in [1]; 4.54 µM in experiment [2]; 12 µM in [3]; 7.7 µM in experiment [4]; 13 µM in experiment [5]; 13.8 µM in experiment [6]. The TGI worked out at 16.8 µM in experiment [7], 11.4 µM in experiment [8], 9.21 µM in [9] and 17.3 µM in experiment [10].

Take `c1ccc(C2N3CCCCC3[C@@H]3c4[nH]c5ccccc5c4CCN23)nc1` (stereo not given in full): the TGI in experiment [1] is greater than 100 µM; in experiment [2], 96.3 µM; in experiment [4] it was greater than 100 µM; in [5], greater than 100 µM; in experiment [6] it was greater than 100 µM; in experiment [7] it was greater than 100 µM. For the same molecule, the TGI in experiment [8], in experiment [9] and in [10] was greater than 100 µM in each case.

`O=C(/C=C/c1ccc(Cl)c(Cl)c1)c1ccc2ccccc2c1`: the TGI in experiment [1] is greater than 100 µM; in [2] it was greater than 100 µM; in [3], greater than 100 µM; in experiment [4], greater than 100 µM; in experiment [5], greater than 100 µM; in experiment [6] it was 71.6 µM. The TGI in experiment [7], in [8], in experiment [9] and in experiment [10] was greater than 100 µM each time.

With `COc1ccc(C2=C(Cl)c3cc(OC)c(OC)cc3C2Cl)cc1` (stereo not given), the TGI in [1] is 28.4 µM; in experiment [2] it was 31.8 µM; in experiment [3] it was 27.5 µM; in [4] it was 31.3 µM; in [5], 47.5 µM; in [6] it was 30.5 µM. Further, the TGI in experiment [7] was found to be 27.4 µM; in experiment [8], 30.6 µM; in experiment [9], 28.6 µM; in [10] it was 32.9 µM.

Turning to `CC(=O)O[C@H]1CCC2[C@@H]3CC[C@]4(C)CC(=O)C=C[C@]4(C)C3CC[C@@]21C` (stereo not given in full), the TGI was 28 µM in experiment [1]; 24.2 µM in [2]; 30.9 µM in experiment [3]; 32.1 µM in experiment [4]; greater than 100 µM in experiment [5]; 55.9 µM in experiment [6]. Further, the TGI in [7] was 32 µM; in experiment [8], greater than 100 µM; in experiment [9], greater than 78.2 µM; in experiment [10], 33.8 µM.

Take `NC(=O)c1cc(Cl)ccc1NC(=O)/C=C/c1ccccc1`: the GI50 is 4.33 µM in [3]; 2.66 µM in [4]; 7.31 µM in [5]; 5.47 µM in experiment [6]; 3.09 µM in experiment [7]; 4.75 µM in experiment [8]. The figures for the GI50 in experiment [9] and in experiment [10] were 3.86 µM and 2.36 µM, respectively. Also, the TGI in [3] was greater than 100 µM; in experiment [4], greater than 100 µM; in experiment [5] it was greater than 95.1 µM; in experiment [6], greater than 100 µM; in experiment [7] it was greater than 100 µM; in experiment [8], greater than 100 µM. In addition, the TGI was greater than 34.8 µM in [9] and greater than 100 µM in experiment [10].

For the molecule `CN1CCc2nc(N)nc(-c3nc(N)nc4c3CN(C)CC4)c2C1`, the TGI in [3], in experiment [4], in [5], in experiment [6], in experiment [7] and in [8] was greater than 100 µM in each case. Further, the TGI in experiment [9] and in experiment [10] was greater than 100 µM each time.

Turning to `OCC1OC(n2cnc3c2NC=NC[C@H]3O)C(Cl)C1O` (stereo not given in full), the TGI in experiment [3], in experiment [4], in experiment [5], in experiment [6], in [7] and in [8] was greater than 100 µM in each case. Further, the TGI in experiment [9] and in [10] was greater than 100 µM in each case.

For `C=C1C(=O)O[C@H]2[C@H]1CC/C(COC(=O)NCCCCNC(=O)OC/C1=C/CC[C@@]3(C)O[C@H]3[C@H]3OC(=O)C(=C)[C@@H]3CC1)=C\CC[C@@]1(C)O[C@@H]21`, the GI50 in [3] is 0.519 µM; in [4], 1.12 µM; in experiment [5], 1.61 µM; in experiment [6] it was 2.75 µM; in experiment [7] it was 4.61 µM; in [8], 3.44 µM. Moreover, the results for the GI50 in experiment [9] and in experiment [10] were 1.99 µM and 0.586 µM, respectively. Besides, the TGI amounted to 1.92 µM in [3]; 2.63 µM in [4]; 4.12 µM in experiment [5]; 10.1 µM in [6]; 18 µM in [7]; 12.9 µM in [8]. In addition, the TGI in experiment [9] was 4.26 µM; in experiment [10], 2.04 µM.

For `CC1=CC(=O)C=CC1=O`, the GI50 is 17.9 µM and 14.4 µM in experiment [3]; 14.8 µM and 2.97 µM in experiment [4]; 20.8 µM and 16.9 µM in experiment [5]; 28.7 µM in [6]; 32.8 µM and 22.3 µM in [7]; 15.9 µM and 2.94 µM in experiment [8]. Besides, the GI50 is 19.3 µM and 19.1 µM in [9]; 5.31 µM in [10]. The TGI in [3] is 42.6 µM and 28 µM; in experiment [4], 29.8 µM; in [5], 36.4 µM and 30.7 µM; in experiment [7] it was 53.4 µM; in experiment [8], 29.4 µM and 10.1 µM; in experiment [9], 33.8 µM and 34.2 µM. The same molecule had a TGI in [10] of 20.8 µM.

Turning to `COc1ccc(-c2cc(-c3cc(C)cc(Br)c3O)no2)cc1`, the TGI is greater than 100 µM in [3]; 28.5 µM in [4]; 38.5 µM in experiment [5]; 85.2 µM in experiment [6]; 44.5 µM in experiment [7]; 24 µM in [8]. In addition, the TGI in experiment [9] was 31.6 µM; in experiment [10], greater than 100 µM.

Values taken from PubChem BioAssay (NCI).
